Laboratory results published in PMC7011955, “Synthesis and biological evaluation of certain hydrazonoindolin-2-one derivatives as new potent anti-proliferative agents” (Journal of Enzyme Inhibition and Medicinal Chemistry, 2018).
Read-outs that look alike come from different tables or passages of the source.

Tests used:
[1] = test system: colon cancer HT-29 cell line; experiment: CellTiter-Glo Luminescent cell viability assay, anti-proliferative activity, HT-29; format: cell-based, human; conditions: 30 µM single concentration, quadruplicate; for inhibition at 30 µM: Homo sapiens, HT-29, read-out: Growth inhibition % HT-29
Experimental: (§1) The anti-proliferative activity of the title compounds 3a-e, 5a-e, 7a-c, and 10a-l towards cancer cell lines, normal cell lines, and multidrug-resistant lung cancer NCI-H69AR cell line was determined using CellTiter-Glo™ Luminescent cell viability assay according to the previously published procedures[14]^,[15].
(§2) The cancer cell growth inhibitory activity of the synthesised 25 compounds 3a-e, 5a-e, 7a-c, and 10a-l was evaluated in vitro towards three human cancer cell lines, namely lung cancer A-549, human colon cancer HT-29, and breast cancer ZR-75 cell lines using CellTiter-Glo™ Luminescent cell viability assay. Sunitinib was included in this assay as a reference drug.
(§3) The prepared hydrazonoindolin-2-ones were first evaluated at preliminary anti-proliferative assay against the three cancer cell lines in quadruplicate at a single concentration of 30 µM. The data presented as percentage growth inhibition (GI%) caused by the test compounds (Table 1).

[2] = test system: A-549, ZR-75 and HT-29 cell lines; experiment: Average anti-proliferative activity over the three cancer cell lines; format: cell-based, human; conditions: average over A-549, ZR-75, HT-29; for Average growth inhibition % / inhibition at 30 µM: 30 µM; for inhibition at 30 µM / IC50: Homo sapiens; for inhibition at 30 µM: read-out: Average growth inhibition %
Experimental: as §1, §2, §3

[3] = test system: breast cancer ZR-75 cell line; experiment: CellTiter-Glo Luminescent cell viability assay, anti-proliferative activity, ZR-75; format: cell-based; conditions: Homo sapiens, ZR75; 30 µM single concentration, quadruplicate; read-out: Growth inhibition % ZR-75
Experimental: as §1, §2, §3

[4] = test system: lung cancer A-549 cell line; experiment: CellTiter-Glo Luminescent cell viability assay, anti-proliferative activity, A-549; format: cell-based, human; conditions: for inhibition at 30 µM: A549, 30 µM single concentration, quadruplicate, read-out: Growth inhibition % A-549; for IC50: read-out: IC50 A-549
Experimental: as §1, §2, §3

[5] = test system: breast cancer ZR-75 cell line; experiment: CellTiter-Glo Luminescent cell viability assay, anti-proliferative activity, ZR-75; format: cell-based, human
[6] = test system: colon cancer HT-29 cell line; experiment: CellTiter-Glo Luminescent cell viability assay, anti-proliferative activity, HT-29; format: cell-based; conditions: Homo sapiens, mean ± SD of four separate experiments
[7] = Homo sapiens, ZR75, mean ± SD of four separate experiments
[8] = Homo sapiens, A549, mean ± SD of four separate experiments
[9] = mean ± SD of four separate experiments

Row | SMILES | inhibition at 30 µM [1] | Average growth inhibition % [2] | inhibition at 30 µM [2] | IC50 [2] | inhibition at 30 µM [3] | melting point | inhibition at 30 µM ([4]; Homo sapiens) | IC50 [5, 7] | IC50 [6] | IC50 [4, 8] | IC50 ([5]; mean ± SD of four separate experiments, listed as 4d) | IC50 [4, 9] | IC50 [5, 9] | Growth inhibition % HT-29 [1]
1 | CC(=O)c1ccc(C=NN=C2C(=O)Nc3ccccc32)cc1 [Compound 3a, 3-((4-Acetylbenzylidene)hydrazono)indolin-2-one] | 53.6 ± 12.2% | 32.0% | < 35% | > 30 µM | 29.6 ± 24.4% | 228 to 230 °C | 12.7 ± 7.1% |  |  |  |  |  |  | 
2 | COC(=O)c1ccc(C=NN=C2C(=O)Nc3ccccc32)cc1 [Compound 3b, Methyl 4-(((2-oxoindolin-3-ylidene)hydrazono)methyl)benzoate] | 92.3 ± 3.7% | 80.3% | > 80% | 14 µM | 80.6 ± 7% | 225 to 227 °C | 68.1 ± 2.8% | 9.72 ± 2.52 µM | 21.1 ± 1.86 µM | 11.2 ± 1.45 µM |  |  |  | 
3 | COC(=O)c1ccc(C=NN=C2C(=O)Nc3ccc(Cl)cc32)cc1 [Compound 3c, Methyl 4-(((5-chloro-2-oxoindolin-3-ylidene)hydrazono)methyl)benzoate] | 95.9 ± 4.7% | 96.1% | > 80% | 6.25 µM | 98.9 ± 2.1% | 266 to 268 °C | 93.5 ± 2.8% | 4.2 ± 0.57 µM | 8.49 ± 1.01 µM | 6.07 ± 0.9 µM |  |  |  | 
4 | CC(=O)c1ccc(C=NN=C2C(=O)Nc3ccc(Br)cc32)cc1 [Compound 3d, 3-((4-Acetylbenzylidene)hydrazono)-5-bromoindolin-2-one] | 56.8 ± 15.1% |  | 42.7% | > 28.7 µM | 53.9 ± 14.4% | 270 to 272 °C | 17.3 ± 10.2% | > 30 µM | > 30 µM | 26.1 ± 4.47 µM | > 30 µM |  |  | 
5 | COC(=O)c1ccc(C=NN=C2C(=O)Nc3ccc(Br)cc32)cc1 [Compound 3e, Methyl 4-(((5-bromo-2-oxoindolin-3-ylidene)hydrazono)methyl)benzoate] | 26.3 ± 24.4% |  | 41.1% | > 27.8 µM | 55.9 ± 18.2% | 283 to 285 °C | -4.2 ± 9.3% | 23.3 µM | > 30 µM | > 30 µM |  | > 30 µM |  | 
6 | Cc1csc(C=NN=C2C(=O)Nc3ccccc32)n1 [Compound 5a, 3-(((4-Methylthiazol-2-yl)methylene)hydrazono)indolin-2-one] | 37.9 ± 26.3% | 27.0% | < 35% |  | 40.8 ± 25.7% | 238 to 240 °C | 2.4 ± 5% |  |  |  |  |  |  | 
7 | O=C1Nc2ccc(Cl)cc2C1=NN=Cc1nccs1 [Compound 5b, 5-Chloro-3-((thiazol-2-ylmethylene)hydrazono)indolin-2-one] | 96.2 ± 4.5% |  | 94.9% | 4.37 µM | 95 ± 8.2% | 293 to 295 °C | 93.6 ± 5.4% | 2.09 ± 0.12 µM | 6.15 ± 0.51 µM | 4.87 ± 0.49 µM |  |  |  | 
8 | Cc1csc(C=NN=C2C(=O)Nc3ccc(Cl)cc32)n1 [Compound 5c, 5-Chloro-3-(((4-methylthiazol-2-yl)methylene)hydrazono)indolin-2-one] | 96.4 ± 4.8% |  | 97.7% | 2.53 µM | 98 ± 2.6% | 290 to 292 °C | 98.8 ± 1.5% | 1.16 ± 0.39 µM | 4.29 ± 0.25 µM | 2.15 ± 0.23 µM |  |  |  | 
9 | O=C1Nc2ccc(Br)cc2C1=NN=Cc1nccs1 [Compound 5d, 5-Bromo-3-((thiazol-2-ylmethylene)hydrazono)indolin-2-one] | 98.5 ± 3.1% |  | 96.6% | 13.5 µM | 96.4 ± 1.5% | 260 to 262 °C | 94.8 ± 2.5% | 12.7 ± 2.4 µM | 15.3 ± 1.93 µM | 12.5 ± 1.73 µM |  |  |  | 
10 | Cc1csc(C=NN=C2C(=O)Nc3ccc(Br)cc32)n1 [Compound 5e, 5-Bromo-3-(((4-methylthiazol-2-yl)methylene)hydrazono)indolin-2-one] | 99 ± 1.1% |  | 97.1% | 7.49 µM | 96.9 ± 2.4% | 248 to 250 °C | 95.3 ± 3.1% | 2.93 ± 0.46 µM | 8.51 µM | 3.54 ± 0.42 µM |  |  |  | 
11 | O=C1Nc2ccccc2C1=NN=Cc1ccn[nH]1 [Compound 7a, 3-(((1H-pyrazol-5-yl)methylene)hydrazono)indolin-2-one] | 60.8 ± 13.1% |  | 43% | > 27.7 µM | 60.1 ± 5.8% | 283 to 285 °C | 8.2 ± 15.1% | > 30 µM | > 30 µM | 22.9 ± 3.51 µM |  |  | > 30 µM | 
12 | O=C1Nc2ccc(Br)cc2C1=NN=Cc1ccn[nH]1 [Compound 7c, 3-(((1H-pyrazol-5-yl)methylene)hydrazono)-5-bromoindolin-2-one] | 28.8 ± 17.3% | 26.9% | < 35% |  | 19.2 ± 22.8% | 264 to 266 °C | 32.8 ± 8.9% |  |  |  |  |  |  | 
13 | O=C1Nc2ccccc2C1=NNc1nc(-c2ccccc2)cs1 [Compound 10a, 3–(2-(4-Phenylthiazol-2-yl)hydrazono)indolin-2-one] | 91.2 ± 8.3% |  | 79.6% | 11.1 µM | 76.9 ± 7.1% |  | 70.7 ± 5.7% | 4.35 µM | 19.4 ± 1.03 µM | 9.41 ± 1.29 µM |  |  |  | 
14 | Cc1ccc(-c2csc(NN=C3C(=O)Nc4ccccc43)n2)cc1 [Compound 10b, 3–(2-(4–(4-Tolyl)thiazol-2-yl)hydrazono)indolin-2-one] | 33.9 ± 21.2% |  | 40.1% | > 28.2 µM | 62.1 ± 10.7% | 284 to 286 °C | 24.4 ± 14.1% | 24.6 µM | > 30 µM | > 30 µM |  | > 30 µM |  | 
15 | O=C1Nc2ccccc2C1=NNc1nc(-c2ccc(Cl)cc2)cs1 [Compound 10c, 3–(2-(4–(4-Chlorophenyl)thiazol-2-yl)hydrazono)indolin-2-one] | 85.4 ± 7% |  | 64.6% | > 17.4 µM | 77.1 ± 10.9% | 295 to 297 °C | 31.4 ± 9.1% | 4.89 µM | > 30 µM | 17.2 ± 2.56 µM |  |  |  | 
16 | O=C1Nc2ccccc2C1=NNc1nc(-c2ccc(Br)cc2)cs1 [Compound 10d, 3–(2-(4–(4-Bromophenyl)thiazol-2-yl)hydrazono)indolin-2-one] | 20.6 ± 26.9% | 28.9% | < 35% |  | 53.8 ± 19.2% |  | 12.3 ± 11.3% |  |  |  |  |  |  | 
17 | Cc1ccc(-c2csc(NN=C3C(=O)Nc4ccc(Cl)cc43)n2)cc1 [Compound 10f, 5-Chloro-3–(2-(4-(p-tolyl)thiazol-2-yl)hydrazono)indolin-2-one] | 54.4 ± 19.5% |  | 44% | > 25.4 µM | 50.3 ± 33.6% | > 300 °C | 27.4 ± 5.8% | 23.4 µM | > 30 µM | 22.7 ± 3.71 µM |  |  |  | 
18 | O=C1Nc2ccc(Cl)cc2C1=NNc1nc(-c2ccc(Cl)cc2)cs1 [Compound 10g, 5-Chloro-3–(2-(4–(4-chlorophenyl)thiazol-2-yl)hydrazono)indolin-2-one] | 34.4 ± 23.6% |  | 35.4% | > 12.7 µM | 52.8 ± 9.4% | > 300 °C | 18.9 ± 3.2% | 1.87 ± 0.26 µM | > 30 µM | 6.07 ± 7.41 µM |  |  |  | 
19 | O=C1Nc2ccc(Cl)cc2C1=NNc1nc(-c2ccc(Br)cc2)cs1 [Compound 10h, 3–(2-(4–(4-Bromophenyl)thiazol-2-yl)hydrazono)-5-chloroindolin-2-one] | -8.3 ± 43.8% |  |  |  | 9 ± 19.2% | > 300 °C | -2.6 ± 7.5% |  |  |  |  |  |  | stimulated the growth
20 | O=C1Nc2ccc(Br)cc2C1=NNc1nc(-c2ccc(Br)cc2)cs1 [Compound 10l, 5-Bromo-3–(2-(4–(4-bromophenyl)thiazol-2-yl)hydrazono)indolin-2-one] | 27.8 ± 4.3% | 34.4% | < 35% |  | 40.9 ± 16.7% | > 300 °C | -20.1 ± 5.9% |  |  |  |  |  |  | 
